Laboratory results published in patent publication US8853264B2, “Use of lignan compounds for treating or preventing inflammatory disease” (Newtree Industry Co., Ltd., priority 2005, dated 2014).

System: inflammatory cells, mast cells, eosinophils
Experiment: Skin staining (H&E, Toluidine blue, Congo red), atopic dermatitis model
Type: in vivo, NC/Nga mice
Procedure: 8-week-old NC/Nga mice (20-25 g) were purchased from Chungang Lab. Animal. After adapting for 1 week, the NC/Nga mouse was anesthetized with 90% ethyl ether (Ducsan, Korea) and hair was removed from the occipital region and the back of the mouse using depilatory cream (Reckitt Benckiser, France). After allowing micro wound healing for a day, 100 mg of mite antigen cream (Biostir, Inc. Japan) comprising Dermatophagoides farina, which causes atopic dermatitis, as a main ingredient was evenly applied on the ear, occipital region and back, 3 times a week (for 5 weeks, from week 9 to week 13). 2 hours before application of the mite antigen cream, 4% SDS solution was applied at the same area to increase transdermal absorption of the mite antigen cream by inducing the breakdown of skin fats and cuticle layer. From week 3 following the application, IgE value was measured to quantitate the degree of atopic dermatitis. Also during the drug treatment period (week 12 to week 13), 100 mg of the mite antigen cream was applied 3 times a week to prevent spontaneous healing of the atopic dermatitis.
In order to induce atopic dermatitis, 100 mg of mite antigen cream was applied on the ear, occipital region and back of NC/Nga mouse (9 to 11 weeks old), except for the negative control group, 3 times a week, 2 hours after the application of 4% SDS solution. Three weeks later, it was observed whether atopic dermatitis was induced by checking skin rash, erythema, cornification, or the like. Atopic dermatitis was induced in all groups except for the negative control group. For drug treatment and evaluation of therapeutic effect, mice were grouped into 12 groups, 6 oral administration groups and 6 topical application groups (each consisting of negative control group, positive control group, macelignan low conc. group, macelignan high conc. group, nutmeg extract low conc. group, and nutmeg extract high conc. group), with n=5 per cage. During the following drug treatment and evaluation period of 2 weeks (12 to 13 weeks old), the negative control groups, which had not been treated with 4% SDS solution and mite antigen cream, were treated with physiological saline (oral administration group) or base cream (topical application group) every day, and the positive control groups, which had been treated with 100 mg of mite antigen cream 2 hours after application of 4% SDS solution, 3 times every week, were treated with physiological saline (oral administration group) or base cream (topical application group). The oral administration groups were treated with 100 mg of mite antigen cream 2 hours after application of 4% SDS solution, 3 times every week, and were treated with macelignan or nutmeg extract at low concentration (50 mg/kg/day) or high concentration (150 mg/kg/day) every day. The topical application groups were treated with 100 mg of mite antigen cream 2 hours after application of 4% SDS solution, 3 times every week, and were treated with macelignan cream or nutmeg extract cream at low concentration (20 mg/kg/day) or high concentration (60 mg/kg/day) every day. Transepidermal water loss (TEWL), skin hydration and erythema index were measured one day before the end of the test. Serum was obtained by retro-orbital blood sampling. After the end of the test (14 weeks old) spleen and skin tissues from occipital region and back were sampled and stored at −70° C. ALN (axillary lymph node) was stored in DMEM containing 2% FBS (fetal bovine serum). The skin tissues were stored in 10% formalin solution.
After the end of the experiment, skin was isolated from the occipital region. Hematoxylin/eosin (H&E) staining was performed to examine change of inflammatory cells such as mast cells, neutrophils, eosinophils, etc. in the epidermis, dermis and keratinocytes and change of skin thickness. Toluidine blue staining was performed to selectively stain the mast cells, and congo red staining was performed to selectively stain the eosinophils.

[1] = oral administration 50 and 150 mg/kg
[2] = topical application 20 and 60 mg/kg

SMILES: COc1cc(C[C@H](C)[C@H](C)Cc2ccc3c(c2)OCO3)ccc1O (single isomer, unassigned) [macelignan]
- Congo red staining: eosinophils [1]: effect of decreasing eosinophils
- H&E staining: inflammatory cells and epidermal thickness [1]: effect of decreasing inflammatory cells and increased epidermal thickness
- Toluidine blue staining: mast cells [1]: effect of decreasing mast cells
- Congo red staining: eosinophils [2]: effect of decreasing eosinophils
- H&E staining: inflammatory cells and epidermal thickness [2]: effect of decreasing inflammatory cells and increased epidermal thickness
- Toluidine blue staining: mast cells [2]: effect of decreasing mast cells
